Source: patent US8030320B2, “Derivatives of 1-OXO-1,2-dihydroisoquinoline-5-carboxamides and of 4-OXO-3,4-dihydroquinazoline-8-carboxamides, preparation thereof and application thereof in therapeutics” (Sanofi-Aventis, priority 2007, dated 2011)
Counter-ions that a name gives are not always drawn.

Key:
[1] = molecular target: T1, purified recombinant form of human BACE1 aspartyl protease (Homo sapiens, UniProt P56817); experiment: BACE-1 FRET assay, in vitro inhibition of β-secretase activity; format: biochemical; conditions: peptide substrate 0.25 μM, enzyme 10 nM, sodium acetate buffer pH 4.5, 60 min, ambient temperature; read-out: IC50 (concentration of product giving 50% inhibition of the enzyme activity)
T1 construct: hexahistidine (His6) (C); made in house; host or cells: Drosophila cells
T1 sequence (P56817 46-501): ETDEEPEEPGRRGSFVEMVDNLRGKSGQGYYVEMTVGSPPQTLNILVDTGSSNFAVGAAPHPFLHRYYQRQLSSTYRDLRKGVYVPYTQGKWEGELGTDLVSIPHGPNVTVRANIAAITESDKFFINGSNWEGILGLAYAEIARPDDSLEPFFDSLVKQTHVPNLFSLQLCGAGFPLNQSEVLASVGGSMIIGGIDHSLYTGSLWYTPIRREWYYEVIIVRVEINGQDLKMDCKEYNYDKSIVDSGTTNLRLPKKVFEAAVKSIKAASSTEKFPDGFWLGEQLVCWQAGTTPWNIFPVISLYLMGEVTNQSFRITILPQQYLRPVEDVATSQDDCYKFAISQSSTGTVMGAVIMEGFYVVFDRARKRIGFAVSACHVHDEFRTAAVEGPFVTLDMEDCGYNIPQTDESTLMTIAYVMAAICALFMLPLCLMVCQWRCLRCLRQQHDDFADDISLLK
Description: The tests consisted in measuring the in vitro inhibition of the β-secretase activity by the compounds of the invention, via the use of the “BACE-1 FRET Assay Kit, Red” available from PanVera-Invitrogen Inc. The β-secretase activity measured corresponds to that of a purified recombinant form of human BACE1 aspartyl protease (the latter comprising a hexahistidine tag at the C-terminal position) produced by expression in Drosophila cells. The purified enzyme is conditioned in TRIS buffer (18 mM) at pH 7.5 containing NaCl (0.45M), MnCl2 (0.9 mM), CaCl2 (0.9 mM), α-D-methylmannoside and 10% glycerol, and stored at −80° C. until use. The BACE1 activity is measured from the cleavage of a fluorogenic peptide substrate sold by Invitrogen (PanVera BACE1/β-secretase FRET assay kit, Red; reference P2985), based on the principle of fluorescence resonance energy transfer (FRET) and corresponding to the Rh-EVNLDAEFK-Quencher sequence; the cleavage of the peptide is measured from the increase of the fluorescent signal emitted by the rhodamine derivative (Rh). The test is carried out in a 96-well microplate in order to determine the inhibition of the enzyme activity by the products of the invention. […] When the incubation is finished, the fluorescence is measured in a spectrofluorimeter, at the excitation wavelength of about 543 nm and emission wavelength of about 585 nm. […]

IC50 [1] [µM]	melting point [°C]	SMILES
2.6		CCCC(CCC)n1ccc2c(C(=O)N[C@@H](Cc3ccccc3)[C@H](O)CNCc3cccc(C(F)(F)F)c3)cccc2c1=O [Compound 1, N-[(1S,2R)-1-benzyl-2-hydroxy-3-{[3-(trifluoromethyl)benzyl]-amino}propyl]-1-oxo-2-(1-propylbutyl)-1,2-dihydroisoquinoline-5-carboxamide hydrochloride (1:1)]
0.83	152	CCCC(CCC)n1cnc2c(C(=O)N[C@@H](Cc3ccccc3)[C@H](O)CNCc3cccc(C(F)(F)F)c3)cccc2c1=O.Cl [Compound 3, N-[(1S,2R)-1-benzyl-2-hydroxy-3-{[3-(trifluoromethyl)benzyl]-amino}propyl]-4-oxo-3-(1-propylbutyl)-3,4-dihydroquinazoline-8-carboxamide hydrochloride (1:1)]
